The subject of assay [1] is NCI-H358 cells (express KRas G12C), Phospho-ERK. Nature of the assay: Cellular inhibition of KRas G12C: Phospho-ERK in NCI-H358 cells. In kind it is cell-based. The note with it: pERK(Thr202/Tyr204) normalized with GAPDH, NCI-H358 cells, 3 hours, read-out: IC50. In a few lines: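 IC50 derived by 4-parameter fit of GAPDH-normalized pERK(Thr202/Tyr204) signal, as percent of DMSO control. Signal came from in-cell immunodetection with infrared secondaries after 3 h compound exposure of KRas G12C NCI-H358 cells at 0.5% DMSO.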

The next assay addresses KRas G12C (Homo sapiens, UniProt P01116, C118S/C51S/C80L/G12C). The assay can be described thus: KRas G12C Modification Assay (LCMS detection of covalent adduct). The note with it: normalized percent of control, tested at 5 μM concentration for 3 hours. The class given is binding. The method, boiled down: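 Covalent modification was read by reverse-phase LC/MS of intact protein after compound exposure, each reaction stopped at its time point with 25 mM acetic acid. Unmodified-protein signal, taken as percent of total, was normalised to untreated protein and reported as POC.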

SMILES strings stand for the structures. pIC50: −log10 of the molar value. Read-outs that look alike come from different tables or passages of the source.

`C=CC(=O)N1CCN(c2nc(OC[C@@H]3CCCN3C)nc3c2CCN(c2ccnc4ccccc24)C3)CC1CC#N` (stereo partly drawn) [Example 295, 2-[4-[2-[[(2S)-1-methylpyrrolidin-2-yl]methoxy]-7-(4-quinolyl)-6,8-dihydro-5H-pyrido[3,4-d]pyrimidin-4-yl]-1-prop-2-enoyl-piperazin-2-yl]acetonitrile]: the pIC50 in assay [1] was less than 6.00. Moreover, the POC entry on KRas G12C (5 µM) is given as “A (“A”≤25% POC)”.

Consider `C=CC(=O)N1CCN(c2nc(OCCN(C)C)nc3c2CCN(c2ccccc2C(F)(F)F)C3)CC1CC#N` (stereo not shown) [Example 296, 2-[4-[2-[2-(dimethylamino)ethoxy]-7-[2-(trifluoromethyl)phenyl]-6,8-dihydro-5H-pyrido[3,4-d]pyrimidin-4-yl]-1-prop-2-enoyl-piperazin-2-yl]acetonitrile], for which, in assay [1], the negative-log IC50 (pIC50) is 6.00 to 10.00. In addition, the POC result on KRas G12C is “C (“C”>50% POC)”.

Turning to `C=CC(=O)N1CCN(c2nc(OCCCN3C[C@H]4C[C@@H]3CO4)nc3c2CCN(c2ccccc2C(F)(F)F)C3)CC1CC#N` (stereo partly drawn) [Example 297, 2-[4-[2-[3-[(1R,4R)-2-oxa-5-azabicyclo[2.2.1]heptan-5-yl]propoxy]-7-[2-(trifluoromethyl)phenyl]-6,8-dihydro-5H-pyrido[3,4-d]pyrimidin-4-yl]-1-prop-2-enoyl-piperazin-2-yl]acetonitrile], the pIC50 in assay [1] was 6.00 to 10.00. For the same compound, the POC result at KRas G12C is “C (“C”>50% POC)”.

In the case of `C=CC(=O)N1CCN(c2nc(OC[C@@H]3CCN(C)C3)nc3c2CCN(c2ccccc2C(F)(F)F)C3)CC1CC#N` (stereo partly drawn) [Example 298, 2-(1-acryloyl-4-(2-(((R)-1-methylpyrrolidin-3-yl)methoxy)-7-(2-(trifluoromethyl)phenyl)-5,6,7,8-tetrahydropyrido[3,4-d]pyrimidin-4-yl)piperazin-2-yl)acetonitrile], in assay [1], the pIC50 was 6.00 to 10.00. The POC result at KRas G12C was “C (“C”>50% POC)”.

As to `C=CC(=O)N1CCN(c2nc(OC[C@H]3CCCN3C)nc3c2CCN(c2ccccc2C(F)(F)F)C3)CC1CC#N` (stereo partly drawn) [Example 299, 2-[4-[2-[[(2R)-1-methylpyrrolidin-2-yl]methoxy]-7-[2-(trifluoromethyl)phenyl]-6,8-dihydro-5H-pyrido[3,4-d]pyrimidin-4-yl]-1-prop-2-enoyl-piperazin-2-yl]acetonitrile], the pIC50 in assay [1] is 6.00 to 10.00. At KRas G12C, the POC entry is given as “C (“C”>50% POC)”.

On to `C=CC(=O)N1CCN(c2nc(OCCN(CC)CC)nc3c2CCN(c2ccccc2C(F)(F)F)C3)CC1CC#N` (stereo not shown) [Example 300, 2-[4-[2-[2-(diethylamino)ethoxy]-7-[2-(trifluoromethyl)phenyl]-6,8-dihydro-5H-pyrido[3,4-d]pyrimidin-4-yl]-1-prop-2-enoyl-piperazin-2-yl]acetonitrile], for which the pIC50 in assay [1] is 6.00 to 10.00. Moreover, the POC entry at KRas G12C was “C (“C”>50% POC)”.

Consider `C=CC(=O)N1CCN(c2nc(OC[C@@H]3CCC(C)(C)N3C)nc3c2CCN(c2cccc4ccccc24)C3)CC1CC#N` (stereo partly drawn) [Example 301, 2-[4-[7-(1-naphthyl)-2-[[(2S)-1,5,5-trimethylpyrrolidin-2-yl]methoxy]-6,8-dihydro-5H-pyrido[3,4-d]pyrimidin-4-yl]-1-prop-2-enoyl-piperazin-2-yl]acetonitrile], for which the negative logarithm of the IC50 (pIC50) in assay [1] (Homo sapiens, NCI-H358, 3 h) was 6.00 to 10.00. In addition, the POC result on KRas G12C is “C (“C”>50% POC)”.

`C=CC(=O)N1CCN(c2nc(OC[C@@H]3CCCN3C)nc3c2CCN(c2cccc4ccc(F)cc24)C3)CC1CC#N` (stereo partly shown) [Example 302]: the pIC50 in assay [1] (Homo sapiens, NCI-H358, 3 h) is 6.00 to 10.00. The POC entry on KRas G12C was “C (“C”>50% POC)”.

With `C=CC(=O)N1CCN(c2nc(OCCN3CCCCC3)nc3c2CCN(c2cccc4ccccc24)C3)CC1CC#N` (stereo not shown) [Example 303, 2-[4-[7-(1-naphthyl)-2-[2-(1-piperidyl)ethoxy]-6,8-dihydro-5H-pyrido[3,4-d]pyrimidin-4-yl]-1-prop-2-enoyl-piperazin-2-yl]acetonitrile], the pIC50 in assay [1] (Homo sapiens, NCI-H358, 3 h) is 6.00 to 10.00. Besides, at KRas G12C, the POC entry is “C (“C”>50% POC)”.

For the compound `C=CC(=O)N1CCN(c2nc(OC[C@H]3CCCN3CCO)nc3c2CCN(c2cccc4ccccc24)C3)CC1CC#N` (stereo partly drawn) [Example 304, 2-[4-[2-[[(2R)-1-(2-hydroxyethyl)pyrrolidin-2-yl]methoxy]-7-(1-naphthyl)-6,8-dihydro-5H-pyrido[3,4-d]pyrimidin-4-yl]-1-prop-2-enoyl-piperazin-2-yl]acetonitrile], in assay [1] (Homo sapiens, NCI-H358, 3 h), the pIC50 was 6.00 to 10.00. Moreover, the POC result at KRas G12C is on record as “C (“C”>50% POC)”.

For `C=CC(=O)N1CCN(c2nc(OC[C@@H]3CCCN3C)nc3c2CCN(c2cnccc2C#N)C3)C[C@@H]1CC#N` [Example 305, 3-(4-((S)-4-acryloyl-3-(cyanomethyl)piperazin-1-yl)-2-(((S)-1-methylpyrrolidin-2-yl)methoxy)-5,6-dihydropyrido[3,4-d]pyrimidin-7(81)-yl)isonicotinonitrile], the pIC50 in assay [1] (Homo sapiens, NCI-H358, 3 h) is less than 6.00. For the same compound, on KRas G12C, the POC result is recorded as “C (“C”>50% POC)”.

In the case of `C=CC(=O)N1CCN(c2nc(OC[C@@H]3C[C@@H](F)CN3C)nc3c2CCN(c2cccc4ccccc24)C3)C[C@@H]1CC#N` [Example 306, 2-[(2S)-4-[2-[[(2S,4R)-4-fluoro-1-methyl-pyrrolidin-2-yl]methoxy]-7-(1-naphthyl)-6,8-dihydro-5H-pyrido[3,4-d]pyrimidin-4-yl]-1-prop-2-enoyl-piperazin-2-yl]acetonitrile], the pIC50 in assay [1] (Homo sapiens, NCI-H358, 3 h) is 6.00 to 10.00. The POC result at KRas G12C was “C (“C”>50% POC)”.

For `C=CC(=O)N1CCN(c2nc(OC[C@@H]3CCCN3C)nc3c2CCN(c2cccc(OC)c2F)C3)CC1CC#N` (stereo partly drawn) [Example 307, 2-[4-[7-(2-fluoro-3-methoxy-phenyl)-2-[[(2S)-1-methylpyrrolidin-2-yl]methoxy]-6,8-dihydro-5H-pyrido[3,4-d]pyrimidin-4-yl]-1-prop-2-enoyl-piperazin-2-yl]acetonitrile], the pIC50 in assay [1] (Homo sapiens, NCI-H358, 3 h) is less than 6.00. Besides, the POC entry on KRas G12C is listed as “C (“C”>50% POC)”.

For `C=CC(=O)N1CCN(c2nc(OC[C@@H]3CCCN3C)nc3c2CCN(c2cccc(F)c2OC)C3)CC1CC#N` (stereo partly drawn) [Example 308, 2-[4-[7-(3-fluoro-2-methoxy-phenyl)-2-[[(2S)-1-methylpyrrolidin-2-yl]methoxy]-6,8-dihydro-5H-pyrido[3,4-d]pyrimidin-4-yl]-1-prop-2-enoyl-piperazin-2-yl]acetonitrile], in assay [1] (Homo sapiens, NCI-H358, 3 h), the pIC50 was 6.00 to 10.00. For the same compound, the POC result on KRas G12C is given as “C (“C”>50% POC)”.

Regarding `C=CC(=O)N1CCN(c2nc(OC[C@@H]3CCCN3C)nc3c2CCN(c2cccc4cccc(C)c24)C3)CC1CC#N` (stereo partly drawn) [Example 309, 2-(1-acryloyl-4-(7-(8-methylnaphthalen-1-yl)-2-(((S)-1-methylpyrrolidin-2-yl)methoxy)-5,6,7,8-tetrahydropyrido[3,4-d]pyrimidin-4-yl)piperazin-2-yl)acetonitrile], the pIC50 in assay [1] (Homo sapiens, NCI-H358, 3 h) is 6.00 to 10.00. Besides, the POC result on KRas G12C is given as “C (“C”>50% POC)”.

In the case of `C=CC(=O)N1CCN(c2nc(OC[C@@H]3CCCN3C)nc3c2CCN(c2c(F)ccc4ccccc24)C3)CC1CC#N` (stereo partly drawn) [Example 311, 2-(1-acryloyl-4-(7-(2-fluoronaphthalen-1-yl)-2-(((S)-1-methylpyrrolidin-2-yl)methoxy)-5,6,7,8-tetrahydropyrido[3,4-d]pyrimidin-4-yl)piperazin-2-yl)acetonitrile], the pIC50 in assay [1] (Homo sapiens, NCI-H358, 3 h) was 6.00 to 10.00. Moreover, the POC entry on KRas G12C is “C (“C”>50% POC)”.

In the case of `C=CC(=O)N1CCN(c2nc(OC[C@@H]3C[C@@H](O)CN3C)nc3c2CCN(c2ccccc2C(F)(F)F)C3)CC1CC#N` (stereo partly drawn) [Example 312, 2-[4-[2-[[(2S,4R)-4-hydroxy-1-methyl-pyrrolidin-2-yl]methoxy]-7-[2-(trifluoromethyl)phenyl]-6,8-dihydro-5H-pyrido[3,4-d]pyrimidin-4-yl]-1-prop-2-enoyl-piperazin-2-yl]acetonitrile], in assay [1] (Homo sapiens, NCI-H358, 3 h), the negative-log IC50 (pIC50) is 6.00 to 10.00. Also, the POC entry on KRas G12C is recorded as “C (“C”>50% POC)”.

Consider `C=CC(=O)N1CCN(c2nc(OC[C@@H]3CCN(C)C3)nc3c2CCN(c2c(C(F)(F)F)ccc4[nH]ncc24)C3)CC1CC#N` (stereo partly drawn) [Example 313, 2-[4-[2-[[(3R)-1-methylpyrrolidin-3-yl]methoxy]-7-[5-(trifluoromethyl)-1H-indazol-4-yl]-6,8-dihydro-5H-pyrido[3,4-d]pyrimidin-4-yl]-1-prop-2-enoyl-piperazin-2-yl]acetonitrile], for which the pIC50 in assay [1] (Homo sapiens) was 6.00 to 10.00. In addition, at KRas G12C, the POC entry is listed as “C (“C”>50% POC)”.

For `C=CC(=O)N1CCN(c2nc(OC[C@@H]3CCCN3C)nc3c2CCN(c2cc(OC)cc4ccccc24)C3)C[C@@H]1CC#N` [Example 314, 2-[(2S)-4-[7-(3-methoxy-1-naphthyl)-2-[[(2S)-1-methylpyrrolidin-2-yl]methoxy]-6,8-dihydro-5H-pyrido[3,4-d]pyrimidin-4-yl]-1-prop-2-enoyl-piperazin-2-yl]acetonitrile], in assay [1] (Homo sapiens, NCI-H358, 3 h), the pIC50 was 6.00 to 10.00. Besides, the POC entry on KRas G12C was “C (“C”>50% POC)”.

Take `C=CC(=O)N1CCN(c2nc(OC[C@@H]3C[C@@H](O)CN3C)nc3c2CCN(c2cccc4ccccc24)C3)C[C@@H]1CC#N` [Example 315, 2-[(2S)-4-[2-[[(2S,4R)-4-hydroxy-1-methyl-pyrrolidin-2-yl]methoxy]-7-(1-naphthyl)-6,8-dihydro-5H-pyrido[3,4-d]pyrimidin-4-yl]-1-prop-2-enoyl-piperazin-2-yl]acetonitrile]: the pIC50 in assay [1] (Homo sapiens, NCI-H358, 3 h) is 6.00 to 10.00. For the same compound, the POC entry at KRas G12C is “C (“C”>50% POC)”.

Source of the values: patent US10125134B2 (Mirati Therapeutics, Inc., priority 2016, dated 2018).
